Test system: MV-4-11 cells
Experiment: Gene expression microarray analysis (Affymetrix PrimeView) and GSEA
Assay type: cell-based, human
Parameters: RFU PODN (11730768_x_at) / Fold change /veh PODN (11730768_x_at) / RFU LINC00158 (11744669_a_at) / Fold change /veh LINC00158 (11744669_a_at) / RFU DUSP10 (11751237_a_at) / Fold change /veh DUSP10 (11751237_a_at) / RFU ID3 (11757404_x_at) / Fold change /veh ID3 (11757404_x_at) / RFU PLEKHG5 (11737974_s_at) / Fold change /veh PLEKHG5 (11737974_s_at) / RFU LRRC4B (11730491_at) / Fold change /veh LRRC4B (11730491_at) / RFU GIMAP4 (11747438_a_at) / Fold change /veh GIMAP4 (11747438_a_at) / RFU KRT8 (11758183_x_at) / Fold change /veh KRT8 (11758183_x_at) / RFU CNN1 (11734310_a_at) / Fold change /veh CNN1 (11734310_a_at) / RFU VPS37D (11726825_at) / Fold change /veh VPS37D (11726825_at) / RFU C10orf10 (11716522_x_at) / Fold change /veh C10orf10 (11716522_x_at) / RFU KIR2DL2 /// KIR2DL4 /// KIR2DL5A /// KIR2DL5B /// KIR2DS1 /// KIR2DS2 /// KIR2DS3 /// KIR2DS4 /// KIR3DL3 /// KIR3DL3 /// KIR3DS1 (11738374_at) / Fold change /veh KIR2DL2 /// KIR2DL4 /// KIR2DL5A /// KIR2DL5B /// KIR2DS1 /// KIR2DS2 /// KIR2DS3 /// KIR2DS4 /// KIR3DL3 /// KIR3DL3 /// KIR3DS1 (11738374_at) / RFU C1QL1 (11718748_at) / Fold change /veh C1QL1 (11718748_at) / RFU TMPRSS4 (11747572_a_at) / Fold change /veh TMPRSS4 (11747572_a_at) / RFU HAMP (11756126_x_at) / Fold change /veh HAMP (11756126_x_at) / RFU RNFT2 (11725882_a_at) / Fold change /veh RNFT2 (11725882_a_at) / RFU NR4A2 (11747474_a_at) / Fold change /veh NR4A2 (11747474_a_at) / RFU ABCC12 (11746883_a_at) / Fold change /veh ABCC12 (11746883_a_at) / RFU TMEM136 (11760407_x_at) / Fold change /veh TMEM136 (11760407_x_at) / RFU CLDN22 /// WWC2 (11732394_at) / Fold change /veh CLDN22 /// WWC2 (11732394_at) / RFU HLA-DPB1 (11760878_x_at) / Fold change /veh HLA-DPB1 (11760878_x_at) / RFU SPINT1 (11716480_a_at) / Fold change /veh SPINT1 (11716480_a_at) / RFU GAP43 (11754022_s_at) / Fold change /veh GAP43 (11754022_s_at) / RFU A4GNT (11735810_at) / Fold change /veh A4GNT (11735810_at) / RFU PRB3 (11715151_x_at) / Fold change /veh PRB3 (11715151_x_at) / RFU TUBB4B (11761932_at) / Fold change /veh TUBB4B (11761932_at) / RFU CAPN14 (11732068_a_at) / Fold change /veh CAPN14 (11732068_a_at) / RFU TMCC2 (11721928_a_at) / Fold change /veh TMCC2 (11721928_a_at) / RFU IRGQ (11745062_a_at) / Fold change /veh IRGQ (11745062_a_at) / RFU FAM174B (11720279_a_at) / Fold change /veh FAM174B (11720279_a_at) / RFU TMPRSS4 (11748680_a_at) / Fold change /veh TMPRSS4 (11748680_a_at) / RFU FAM212B (11763350_a_at) / Fold change /veh FAM212B (11763350_a_at) / RFU PLEKHG5 (11743358_a_at) / Fold change /veh PLEKHG5 (11743358_a_at) / RFU ZSCAN30 (11745921_a_at) / Fold change /veh ZSCAN30 (11745921_a_at) / RFU CMKLR1 (11741424_a_at) / Fold change /veh CMKLR1 (11741424_a_at) / RFU LOC101060620 /// MAPK8IP1 (11723275_at) / Fold change /veh LOC101060620 /// MAPK8IP1 (11723275_at) / RFU SPTSSB (11747773_x_at) / Fold change /veh SPTSSB (11747773_x_at) / RFU PRSS12 (11739890_at) / Fold change /veh PRSS12 (11739890_at) / RFU BIN1 (11741810_x_at) / Fold change /veh BIN1 (11741810_x_at) / RFU WNT11 (11732464_a_at) / Fold change /veh WNT11 (11732464_a_at) / RFU C10orf10 (11716521_a_at) / Fold change /veh C10orf10 (11716521_a_at) / RFU C5orf56 (11738089_at) / Fold change /veh C5orf56 (11738089_at) / RFU CYB561 (11721691_x_at) / Fold change /veh CYB561 (11721691_x_at) / RFU ANKRD19P (11752326_a_at) / Fold change /veh ANKRD19P (11752326_a_at) / RFU OR2T12 /// OR2T33 /// OR2T8 (11738714_s_at) / Fold change /veh OR2T12 /// OR2T33 /// OR2T8 (11738714_s_at) / RFU VCAN (11748164_a_at) / Fold change /veh VCAN (11748164_a_at) / RFU JSRP1 (11732532_at) / Fold change /veh JSRP1 (11732532_at) / RFU KRTAP10-11 (11738290_x_at) / Fold change /veh KRTAP10-11 (11738290_x_at) / RFU MYO3A (11730013_a_at) / Fold change /veh MYO3A (11730013_a_at) / RFU EBF3 (11725865_a_at) / Fold change /veh EBF3 (11725865_a_at) / RFU CAMK2N1 (11719241_x_at) / Fold change /veh CAMK2N1 (11719241_x_at) / RFU C5orf56 (11738088_a_at) / Fold change /veh C5orf56 (11738088_a_at) / RFU OLFML3 (11715873_a_at) / Fold change /veh OLFML3 (11715873_a_at) / RFU LOC100653217 /// NTM (11731650_a_at) / Fold change /veh LOC100653217 /// NTM (11731650_a_at) / RFU MAPK11 (11762145_a_at) / Fold change /veh MAPK11 (11762145_a_at) / RFU FIZ1 (11724087_x_at) / Fold change /veh FIZ1 (11724087_x_at) / RFU OASL (11726364_x_at) / Fold change /veh OASL (11726364_x_at) / RFU SOX15 (11748057_x_at) / Fold change /veh SOX15 (11748057_x_at) / RFU CD79A (11719716_a_at) / Fold change /veh CD79A (11719716_a_at) / RFU HIST1H1D (11736915_at) / Fold change /veh HIST1H1D (11736915_at) / RFU CASKIN2 (11723855_a_at) / Fold change /veh CASKIN2 (11723855_a_at) / RFU LOC730098 (11760151_x_at) / Fold change /veh LOC730098 (11760151_x_at) / RFU OR4N2 (11742367_at) / Fold change /veh OR4N2 (11742367_at) / RFU PRRT2 (11749266_a_at) / Fold change /veh PRRT2 (11749266_a_at) / RFU SNX32 (11753110_a_at) / Fold change /veh SNX32 (11753110_a_at) / RFU CDHR5 (11726645_a_at) / Fold change /veh CDHR5 (11726645_a_at) / RFU RCAN1 (11760418_a_at) / Fold change /veh RCAN1 (11760418_a_at) / RFU FAM167A (11723789_a_at) / Fold change /veh FAM167A (11723789_a_at) / RFU FAM26E (11764081_at) / Fold change /veh FAM26E (11764081_at) / RFU ISYNA1 (11749810_s_at) / Fold change /veh ISYNA1 (11749810_s_at) / RFU ACY1 (11761880_at) / Fold change /veh ACY1 (11761880_at) / RFU 11764098_at / Fold change /veh 11764098_at / RFU SAMD14 (11745864_x_at) / Fold change /veh SAMD14 (11745864_x_at) / RFU NPB (11741838_a_at) / Fold change /veh NPB (11741838_a_at) / RFU TMPRSS6 (11731388_a_at) / Fold change /veh TMPRSS6 (11731388_a_at) / RFU KRTAP10-2 (11738614_at) / Fold change /veh KRTAP10-2 (11738614_at) / RFU ARHGAP8 /// PRR5-ARHGAP8 (11727945_x_at) / Fold change /veh ARHGAP8 /// PRR5-ARHGAP8 (11727945_x_at) / RFU KRTAP5-7 /// NADSYN1 (11734609_at) / Fold change /veh KRTAP5-7 /// NADSYN1 (11734609_at) / RFU RASL12 (11751679_a_at) / Fold change /veh RASL12 (11751679_a_at) / RFU CDKN2B (11736163_a_at) / Fold change /veh CDKN2B (11736163_a_at) / RFU PRF1 (11729649_at) / Fold change /veh PRF1 (11729649_at) / RFU, ZNF638 /// ZNF638-IT1 / Fold change vs veh, ZNF638 /// ZNF638-IT1 / RFU, PANK3 / Fold change vs veh, PANK3 / RFU, SH3YL1 / Fold change vs veh, SH3YL1 / RFU, ZEB2 / Fold change vs veh, ZEB2 / RFU, NRIP1 / Fold change vs veh, NRIP1 / RFU, PTTG1IP / Fold change vs veh, PTTG1IP / RFU, CAPN2 / Fold change vs veh, CAPN2 / RFU, MED14 / Fold change vs veh, MED14 / RFU, SNORA58 / Fold change vs veh, SNORA58 / RFU, C1orf63 / Fold change vs veh, C1orf63 / RFU, LRRFIP1 / Fold change vs veh, LRRFIP1 / RFU, NDUFAF7 / Fold change vs veh, NDUFAF7 / RFU, SLC12A2 / Fold change vs veh, SLC12A2 / RFU, IBTK / Fold change vs veh, IBTK / RFU, ESF1 / Fold change vs veh, ESF1 / Fold change vs veh, TMEM50B / RFU, TAOK1 / Fold change vs veh, TAOK1 / RFU, ACBD3 / Fold change vs veh, ACBD3 / RFU, TMA16 / Fold change vs veh, TMA16 / RFU, RWDD3 / Fold change vs veh, RWDD3 / RFU, BCAT1 / Fold change vs veh, BCAT1 / RFU, EDEM3 / Fold change vs veh, EDEM3 / RFU, TMEM33 / Fold change vs veh, TMEM33 / RFU, WDR75 / Fold change vs veh, WDR75 / RFU, AHCTF1 / Fold change vs veh, AHCTF1 / RFU, TFRC / Fold change vs veh, TFRC / RFU, ZDHHC17 / Fold change vs veh, ZDHHC17 / RFU, NOM1 / Fold change vs veh, NOM1 / RFU, ARL8B / Fold change vs veh, ARL8B / RFU, ZBTB11 / Fold change vs veh, ZBTB11 / RFU, TAMM41 / Fold change vs veh, TAMM41 / RFU, KIAA1704 /// LOC100996395 / Fold change vs veh, KIAA1704 /// LOC100996395 / RFU, ING1 / Fold change vs veh, ING1 / RFU, TRMT61B / Fold change vs veh, TRMT61B / RFU, FUBP3 / Fold change vs veh, FUBP3 / RFU, TP53 / Fold change vs veh, TP53 / RFU, TNKS2 / Fold change vs veh, TNKS2 / RFU, ZFP14 / Fold change vs veh, ZFP14 / RFU, ACTR2 / Fold change vs veh, ACTR2 / RFU, PPP3R1 / Fold change vs veh, PPP3R1 / RFU, PIK3R1 / Fold change vs veh, PIK3R1 / RFU, HNRNPA1 / Fold change vs veh, HNRNPA1 / RFU, RNF170 / Fold change vs veh, RNF170 / RFU, ZNF28 / Fold change vs veh, ZNF28 / RFU, RNGTT / Fold change vs veh, RNGTT / RFU, OGT / Fold change vs veh, OGT / RFU, BRD1 / Fold change vs veh, BRD1 / RFU, MARS / Fold change vs veh, MARS / RFU, ZNF655 / Fold change vs veh, ZNF655 / RFU, FAHD1 / Fold change vs veh, FAHD1 / RFU, BDP1 / Fold change vs veh, BDP1 / RFU, LRRCC1 / Fold change vs veh, LRRCC1 / RFU, ARID1A / Fold change vs veh, ARID1A / RFU, ZNF146 / Fold change vs veh, ZNF146 / RFU, ZNF330 / Fold change vs veh, ZNF330 / RFU, GPN3 / Fold change vs veh, GPN3 / RFU, C9orf123 / Fold change vs veh, C9orf123 / RFU, N4BP2L2 / Fold change vs veh, N4BP2L2 / RFU, ARFIP1 / Fold change vs veh, ARFIP1 / RFU, FAM179B / Fold change vs veh, FAM179B / RFU, BCL10 / Fold change vs veh, BCL10 / RFU, UHRF1BP1L / Fold change vs veh, UHRF1BP1L / RFU, BET1 / Fold change vs veh, BET1 / RFU, CNOT2 / Fold change vs veh, CNOT2 / RFU, ZNF268 / Fold change vs veh, ZNF268 / Fold change vs veh, ZNF507 / RFU, DGCR2 / Fold change vs veh, DGCR2 / RFU, WDSUB1 / Fold change vs veh, WDSUB1 / Fold change vs veh, HSP90B1 /// MIR3652 / RFU, ADSS / Fold change vs veh, ADSS / RFU, GK / Fold change vs veh, GK / RFU, ZNF148 / Fold change vs veh, ZNF148 / RFU, TAF9 / Fold change vs veh, TAF9 / RFU, SLC1A5 / Fold change vs veh, SLC1A5 / RFU, SLMO2 / Fold change vs veh, SLMO2 / RFU, ABCC4 / Fold change vs veh, ABCC4 / RFU, LOC101060439 /// RAP1B / Fold change vs veh, LOC101060439 /// RAP1B / RFU, RFX7 / Fold change vs veh, RFX7 / RFU, GTPBP10 / Fold change vs veh, GTPBP10 / RFU, CNEP1R1 / Fold change vs veh, CNEP1R1 / RFU, BIVM-ERCC5 /// ERCC5 / Fold change vs veh, BIVM-ERCC5 /// ERCC5 / RFU, ILF3 / Fold change vs veh, ILF3 / RFU 11762660_at / Fold change /veh 11762660_at / RFU VCAN (11757783_s_at) / Fold change /veh VCAN (11757783_s_at) / RFU DDX43 (11728927_at) / Fold change /veh DDX43 (11728927_at) / RFU KRT8 (11758188_x_at) / Fold change /veh KRT8 (11758188_x_at) / RFU NKD1 (11759106_at) / Fold change /veh NKD1 (11759106_at) / RFU SRD5A1 (11742802_a_at) / Fold change /veh SRD5A1 (11742802_a_at) / RFU TPSAB1 /// TPSB2 (11721975_s_at) / Fold change /veh TPSAB1 /// TPSB2 (11721975_s_at) / RFU GSTM3 (11746129_a_at) / Fold change /veh GSTM3 (11746129_a_at) / RFU IL23R (11737362_x_at) / Fold change /veh IL23R (11737362_x_at) / RFU TMEM51 (11727254_a_at) / Fold change /veh TMEM51 (11727254_a_at) / RFU PIWIL2 (11732686_x_at) / Fold change /veh PIWIL2 (11732686_x_at) / RFU ORM1 (11744905_x_at) / Fold change /veh ORM1 (11744905_x_at) / RFU CCDC152 (11743942_at) / Fold change /veh CCDC152 (11743942_at) / RFU ECM1 (11717891_a_at) / Fold change /veh ECM1 (11717891_a_at) / RFU IL23R (11748794_a_at) / Fold change /veh IL23R (11748794_a_at) / RFU TNFAIP8L3 (11732012_x_at) / Fold change /veh TNFAIP8L3 (11732012_x_at) / RFU MBOAT4 (11741988_at) / Fold change /veh MBOAT4 (11741988_at) / RFU 11764193_at / Fold change /veh 11764193_at / RFU TMEM53 (11763286_at) / Fold change /veh TMEM53 (11763286_at) / RFU MAGEB2 (11727129_at) / Fold change /veh MAGEB2 (11727129_at) / RFU TMEM200A (11744735_a_at) / Fold change /veh TMEM200A (11744735_a_at) / RFU CCDC152 (11751479_a_at) / Fold change /veh CCDC152 (11751479_a_at) / RFU FAM211A (11726209_a_at) / Fold change /veh FAM211A (11726209_a_at) / RFU RGS16 (11746705_a_at) / Fold change /veh RGS16 (11746705_a_at) / RFU VCAN (11755009_s_at) / Fold change /veh VCAN (11755009_s_at) / RFU RHOB (11743442_s_at) / Fold change /veh RHOB (11743442_s_at) / RFU RGS16 (11720943_a_at) / Fold change /veh RGS16 (11720943_a_at) / RFU RGS16 (11720944_at) / Fold change /veh RGS16 (11720944_at) / RFU, VPS4B / Fold change vs veh, VPS4B / RFU, CREB1 / Fold change vs veh, CREB1 / RFU, DNAJC13 / Fold change vs veh, DNAJC13 / RFU, GNAQ / Fold change vs veh, GNAQ / RFU, CDK5R1 / Fold change vs veh, CDK5R1 / RFU, ZRANB3 / Fold change vs veh, ZRANB3 / RFU, CUL4A / Fold change vs veh, CUL4A / RFU, CCNY / Fold change vs veh, CCNY / RFU, UFL1 / Fold change vs veh, UFL1 / RFU, COG3 / Fold change vs veh, COG3 / RFU, DIAPH2 / Fold change vs veh, DIAPH2 / RFU, SKA2 / Fold change vs veh, SKA2 / RFU, AFF3 / Fold change vs veh, AFF3 / RFU, LMF1 / Fold change vs veh, LMF1 / RFU, IPO11 / Fold change vs veh, IPO11 / RFU, DFFB / Fold change vs veh, DFFB / RFU, FOXP1 / Fold change vs veh, FOXP1 / RFU, CARD8 / Fold change vs veh, CARD8 / RFU, STRN3 / Fold change vs veh, STRN3 / RFU, ADK / Fold change vs veh, ADK / RFU, RASSF2 / Fold change vs veh, RASSF2 / RFU, WIPF1 / Fold change vs veh, WIPF1 / RFU, LARP1B / Fold change vs veh, LARP1B / RFU, RASA1 / Fold change vs veh, RASA1 / RFU, RB1 / Fold change vs veh, RB1 / RFU, PPFIA1 / Fold change vs veh, PPFIA1 / RFU, MAT2A / Fold change vs veh, MAT2A / RFU, CCT5 / Fold change vs veh, CCT5 / RFU, WDR92 / Fold change vs veh, WDR92 / RFU, CUX1 / Fold change vs veh, CUX1 / RFU, TTC7A / Fold change vs veh, TTC7A / RFU, TMEM135 / Fold change vs veh, TMEM135 / RFU, DEPTOR / Fold change vs veh, DEPTOR / RFU, CPM / Fold change vs veh, CPM / RFU, DNAJB6 / Fold change vs veh, DNAJB6 / RFU, CACNA2D3 / Fold change vs veh, CACNA2D3 / RFU, DTX4 / Fold change vs veh, DTX4 / RFU, TFCP2 / Fold change vs veh, TFCP2 / RFU, GMCL1 /// GMCL1P1 / Fold change vs veh, GMCL1 /// GMCL1P1 / RFU, AEBP2 / Fold change vs veh, AEBP2 / RFU, SNHG1 /// SNORD22 /// SNORD25 /// SNORD26 /// SNORD27 /// SNORD28 /// SNORD29 /// SNORD31 / Fold change vs veh, SNHG1 /// SNORD22 /// SNORD25 /// SNORD26 /// SNORD27 /// SNORD28 /// SNORD29 /// SNORD31 / Fold change (Aza/veh), C12orf56 (ProbeSet 11735607_a_at) / Fold change (ACY-1035/veh), C12orf56 (ProbeSet 11735607_a_at) / Fold change (Aza/veh), FGFR1OP (ProbeSet 11751329_s_at) / Fold change (ACY-1035/veh), FGFR1OP (ProbeSet 11751329_s_at) / Fold change (Aza/veh), VPS36 (ProbeSet 11739960_a_at) / Fold change (ACY-1035/veh), VPS36 (ProbeSet 11739960_a_at) / RFU SYPL1 (11715823_x_at) / Fold change /veh SYPL1 (11715823_x_at) / RFU IGFBP7 (11715501_s_at) / Fold change /veh IGFBP7 (11715501_s_at) / RFU REEP3 (11722064_at) / Fold change /veh REEP3 (11722064_at) / RFU IGLL1 (11728026_x_at) / Fold change /veh IGLL1 (11728026_x_at): dose or concentration left out as unconfirmed
Settings: MV-4-11 cells, 48 hours

Nc1ccc(-c2cccs2)cc1NC(=O)c1ccc2c(c1)cc(C1CC1)n2CCN1CCOCC1 [ACY-1035]
RFU MAPK11 (11762145_a_at): 21.16 RFU
